The record followed here is ChEMBL document CHEMBL1201862, “PubChem BioAssay data set” (2004).

As usually defined, the EC50 is the midpoint of the concentration-response curve. Broadly, the AC50 is the concentration at which the activity in the assay is half-maximal.

Active and inactive are the calls of the source.

Experiment [1] has as its target G2/mitotic-specific cyclin-B1 (Homo sapiens, UniProt P14635). Description: Counterscreen assay for inhibitors of Wee1 degradation: dose response cell-based assay to identify inhibitors of cyclin B degradation. [Related pubchem assays: 1410, 1321 ]. Type of experiment: functional. On the technique in general: A counterscreen serves to expose hits that act by an unwanted route or on another target.

Experiment [2] deals with Endoribonuclease toxin MazF (Escherichia coli K-12, UniProt P0AE70). Description: activation of MazEF endoribonuclease cleavage – biochemical, fluorescence, single-stranded RNA substrate, uHTS hits, dose response (AID 588481). In kind it is functional.
The target of experiment [3] is T1, Caspase-6 (Homo sapiens, UniProt P55212).
T1 sequence (P55212 whole entry): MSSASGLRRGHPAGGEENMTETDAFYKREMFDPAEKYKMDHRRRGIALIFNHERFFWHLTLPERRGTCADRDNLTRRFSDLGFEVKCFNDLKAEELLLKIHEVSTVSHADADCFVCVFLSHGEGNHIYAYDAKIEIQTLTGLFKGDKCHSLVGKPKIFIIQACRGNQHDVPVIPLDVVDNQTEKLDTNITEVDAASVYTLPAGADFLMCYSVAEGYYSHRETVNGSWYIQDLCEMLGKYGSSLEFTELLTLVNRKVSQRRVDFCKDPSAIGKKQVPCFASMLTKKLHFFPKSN
Description: inhibition of CASP6 peptide cleavage – biochemical, VEID-R110 fluorescence, cherry-pick, dose response (AID 720632).

The target in experiment [4] is Serine/threonine-protein phosphatase PP1-alpha catalytic subunit (Homo sapiens, UniProt P62136). Description: inhibition of protein phosphatase 1 activity – biochemical, fluorescence, dose response (AID 2394).
For experiment [5], the target named is SUMO-activating enzyme (Homo sapiens, UniProt Q9UBT2). Description: blockers of SAE1/SAE2–UBC9 SUMO transfer – biochemical, HTRF, uHTS, primary screen (AID 2006). Type of experiment: protein-complex assay. On the technique in general: TR-FRET usually uses a lanthanide donor and a delayed reading to cut background.
The target in experiment [6] is Heat shock cognate 71 kDa protein (Homo sapiens, UniProt P11142). Description: small molecules displacing fluorescent ligand from Hsc70 – biochemical, fluorescence polarization, primary screen (AID 568). For orientation: Polarisation of emitted light reports the rotation of a fluorescent probe.
Experiment [7] concerns the target Small ubiquitin-related modifier 2 (Homo sapiens, UniProt P61956). Description: SUMO2 binding disruption by SUMO1 hits – biochemical, FRET, human SUMO2, uHTS hits, selectivity assay for SUMO1 interaction inhibitor project, dose response (AID 624384). In kind it is functional. The note with it: read-out: IC50_Mean.
Experiment [8] addresses Fatty acid synthase (Homo sapiens, UniProt P49327). Description: inhibition of human FAS-TE enzyme activity – biochemical, endpoint fluorescence intensity, uHTS hits, dose response (AID 624327).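 Further: fluorescence from hydrolysis of an O-methyl fluorescein acyl ester substrate by the enzyme.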 Type of experiment: functional.
Experiment [9] concerns the target T2, Streptokinase A (Streptococcus pyogenes serotype M1, UniProt P10520).
T2 sequence (P10520 whole entry): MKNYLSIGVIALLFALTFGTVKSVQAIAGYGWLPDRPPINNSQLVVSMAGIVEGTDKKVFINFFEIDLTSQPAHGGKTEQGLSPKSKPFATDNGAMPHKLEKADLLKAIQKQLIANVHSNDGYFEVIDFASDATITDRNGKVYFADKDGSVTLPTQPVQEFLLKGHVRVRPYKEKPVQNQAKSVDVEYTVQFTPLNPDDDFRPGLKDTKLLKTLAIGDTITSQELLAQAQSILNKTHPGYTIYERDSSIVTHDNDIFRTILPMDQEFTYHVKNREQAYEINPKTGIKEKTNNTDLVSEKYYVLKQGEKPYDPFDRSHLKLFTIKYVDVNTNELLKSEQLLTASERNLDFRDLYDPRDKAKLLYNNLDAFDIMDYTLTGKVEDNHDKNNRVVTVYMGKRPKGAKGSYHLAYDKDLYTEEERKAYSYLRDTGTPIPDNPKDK
Description: viability-normalized secreted streptokinase activity reduction – plasminogen activation absorbance, OD405, dose response (AID 1914).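 Further: secreted streptokinase activity via plasminogen activation per viability signal from cell pellet.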 Type of experiment: functional, Streptococcus pyogenes M1 GAS.

Experiment [10] in a line: rise of 4N DNA cells, HeLa – IC50, dose response (AID 1117351). Type of experiment: functional, cell-based.
In experiment [11] the target is T3, Heat shock factor protein 1 (Mus musculus, UniProt P38532).
T3 sequence (P38532 whole entry): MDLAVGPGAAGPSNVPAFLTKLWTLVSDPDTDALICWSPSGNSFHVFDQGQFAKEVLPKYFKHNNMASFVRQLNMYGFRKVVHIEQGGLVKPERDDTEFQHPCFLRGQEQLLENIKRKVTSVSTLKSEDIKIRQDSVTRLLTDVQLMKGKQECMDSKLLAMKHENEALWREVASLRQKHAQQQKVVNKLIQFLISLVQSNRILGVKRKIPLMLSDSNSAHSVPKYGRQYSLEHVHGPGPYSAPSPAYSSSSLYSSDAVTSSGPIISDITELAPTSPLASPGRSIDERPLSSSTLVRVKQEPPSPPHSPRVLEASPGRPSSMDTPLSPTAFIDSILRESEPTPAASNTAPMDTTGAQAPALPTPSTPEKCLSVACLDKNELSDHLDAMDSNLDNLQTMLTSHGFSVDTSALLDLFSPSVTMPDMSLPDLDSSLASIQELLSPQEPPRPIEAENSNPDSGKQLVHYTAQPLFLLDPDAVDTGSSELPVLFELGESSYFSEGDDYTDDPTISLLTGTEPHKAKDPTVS
Description: decrease of HSF1-responsive luciferase luminescence – cell-based, NIH3T3, dose retest, confirmation (AID 2382).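 Further: NIH3T3 fibroblasts with HSF1-driven luciferase reporter stressed by proteasome inhibitor MG132; luminescence from HSF1-driven luciferase expression after 8 hours of MG132 stress.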 In kind it is functional.

Experiment [12] deals with HEK293. Description: SAR Analysis of small molecule inhibitors of T-cell specific antigen receptor-induced NF-kB activation in a HEK-293T cell line using a luminescence assay - Set 2. [Related pubchem assays (depositor defined):AID435003, AID435012, AID489026]. Type of experiment: functional, cell-based. The note with it: Homo sapiens.
Experiment [13] relates to BJ. Description: BJ-TERT fibroblast viability loss – cell-based, RAS-independent, luminescence, dose response (AID 1933). Type of experiment: functional. The note with it: Homo sapiens.
The target in experiment [14] is T4, Serine/threonine-protein phosphatase (Candida dubliniensis (strain CD36 / CBS 7987 / NCPF 3949 / NRRLY-17841) (Yeast), UniProt B9W6M3).
T4 sequence (B9W6M3 whole entry): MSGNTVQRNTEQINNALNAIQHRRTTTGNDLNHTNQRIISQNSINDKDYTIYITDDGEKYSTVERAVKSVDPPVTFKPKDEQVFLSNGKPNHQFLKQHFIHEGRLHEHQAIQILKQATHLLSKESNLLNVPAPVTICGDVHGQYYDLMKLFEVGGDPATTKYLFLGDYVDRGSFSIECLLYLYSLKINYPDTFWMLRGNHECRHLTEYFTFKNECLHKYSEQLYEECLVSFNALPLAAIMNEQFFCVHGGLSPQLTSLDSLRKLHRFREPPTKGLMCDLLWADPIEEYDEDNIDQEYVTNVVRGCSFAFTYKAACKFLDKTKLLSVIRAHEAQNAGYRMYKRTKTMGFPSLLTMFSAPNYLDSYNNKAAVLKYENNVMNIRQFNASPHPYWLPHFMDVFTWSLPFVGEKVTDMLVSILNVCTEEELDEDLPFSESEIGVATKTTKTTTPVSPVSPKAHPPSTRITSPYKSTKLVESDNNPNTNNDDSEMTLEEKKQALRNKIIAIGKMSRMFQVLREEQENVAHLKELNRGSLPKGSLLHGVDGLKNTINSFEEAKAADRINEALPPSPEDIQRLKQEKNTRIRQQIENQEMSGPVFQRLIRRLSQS
Description: blockers of CaCl2-induced CDRE-lacZ signaling – S. cerevisiae, luminescence, secondary, dose response (AID 2388).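 Further: yeast reporter cells carrying a calcineurin-responsive lacZ construct stimulated with calcium chloride; luminescent beta-galactosidase reporter signal in whole cells rather than isolated phosphatase activity; potency for inhibition where a drop in reporter signal means calcineurin blockade.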 Type of experiment: functional, cell-based.

The subject of experiment [15] is BJ. Description: BJ-TERT-LT-ST fibroblast viability loss – cell-based, RAS-independent, luminescence, dose response (AID 1935).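 Further: BJ fibroblasts immortalized with TERT plus LT and ST oncogenes.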 In kind it is functional. The note with it: Homo sapiens.

Chain of Fatty acid synthase (P49327 whole entry): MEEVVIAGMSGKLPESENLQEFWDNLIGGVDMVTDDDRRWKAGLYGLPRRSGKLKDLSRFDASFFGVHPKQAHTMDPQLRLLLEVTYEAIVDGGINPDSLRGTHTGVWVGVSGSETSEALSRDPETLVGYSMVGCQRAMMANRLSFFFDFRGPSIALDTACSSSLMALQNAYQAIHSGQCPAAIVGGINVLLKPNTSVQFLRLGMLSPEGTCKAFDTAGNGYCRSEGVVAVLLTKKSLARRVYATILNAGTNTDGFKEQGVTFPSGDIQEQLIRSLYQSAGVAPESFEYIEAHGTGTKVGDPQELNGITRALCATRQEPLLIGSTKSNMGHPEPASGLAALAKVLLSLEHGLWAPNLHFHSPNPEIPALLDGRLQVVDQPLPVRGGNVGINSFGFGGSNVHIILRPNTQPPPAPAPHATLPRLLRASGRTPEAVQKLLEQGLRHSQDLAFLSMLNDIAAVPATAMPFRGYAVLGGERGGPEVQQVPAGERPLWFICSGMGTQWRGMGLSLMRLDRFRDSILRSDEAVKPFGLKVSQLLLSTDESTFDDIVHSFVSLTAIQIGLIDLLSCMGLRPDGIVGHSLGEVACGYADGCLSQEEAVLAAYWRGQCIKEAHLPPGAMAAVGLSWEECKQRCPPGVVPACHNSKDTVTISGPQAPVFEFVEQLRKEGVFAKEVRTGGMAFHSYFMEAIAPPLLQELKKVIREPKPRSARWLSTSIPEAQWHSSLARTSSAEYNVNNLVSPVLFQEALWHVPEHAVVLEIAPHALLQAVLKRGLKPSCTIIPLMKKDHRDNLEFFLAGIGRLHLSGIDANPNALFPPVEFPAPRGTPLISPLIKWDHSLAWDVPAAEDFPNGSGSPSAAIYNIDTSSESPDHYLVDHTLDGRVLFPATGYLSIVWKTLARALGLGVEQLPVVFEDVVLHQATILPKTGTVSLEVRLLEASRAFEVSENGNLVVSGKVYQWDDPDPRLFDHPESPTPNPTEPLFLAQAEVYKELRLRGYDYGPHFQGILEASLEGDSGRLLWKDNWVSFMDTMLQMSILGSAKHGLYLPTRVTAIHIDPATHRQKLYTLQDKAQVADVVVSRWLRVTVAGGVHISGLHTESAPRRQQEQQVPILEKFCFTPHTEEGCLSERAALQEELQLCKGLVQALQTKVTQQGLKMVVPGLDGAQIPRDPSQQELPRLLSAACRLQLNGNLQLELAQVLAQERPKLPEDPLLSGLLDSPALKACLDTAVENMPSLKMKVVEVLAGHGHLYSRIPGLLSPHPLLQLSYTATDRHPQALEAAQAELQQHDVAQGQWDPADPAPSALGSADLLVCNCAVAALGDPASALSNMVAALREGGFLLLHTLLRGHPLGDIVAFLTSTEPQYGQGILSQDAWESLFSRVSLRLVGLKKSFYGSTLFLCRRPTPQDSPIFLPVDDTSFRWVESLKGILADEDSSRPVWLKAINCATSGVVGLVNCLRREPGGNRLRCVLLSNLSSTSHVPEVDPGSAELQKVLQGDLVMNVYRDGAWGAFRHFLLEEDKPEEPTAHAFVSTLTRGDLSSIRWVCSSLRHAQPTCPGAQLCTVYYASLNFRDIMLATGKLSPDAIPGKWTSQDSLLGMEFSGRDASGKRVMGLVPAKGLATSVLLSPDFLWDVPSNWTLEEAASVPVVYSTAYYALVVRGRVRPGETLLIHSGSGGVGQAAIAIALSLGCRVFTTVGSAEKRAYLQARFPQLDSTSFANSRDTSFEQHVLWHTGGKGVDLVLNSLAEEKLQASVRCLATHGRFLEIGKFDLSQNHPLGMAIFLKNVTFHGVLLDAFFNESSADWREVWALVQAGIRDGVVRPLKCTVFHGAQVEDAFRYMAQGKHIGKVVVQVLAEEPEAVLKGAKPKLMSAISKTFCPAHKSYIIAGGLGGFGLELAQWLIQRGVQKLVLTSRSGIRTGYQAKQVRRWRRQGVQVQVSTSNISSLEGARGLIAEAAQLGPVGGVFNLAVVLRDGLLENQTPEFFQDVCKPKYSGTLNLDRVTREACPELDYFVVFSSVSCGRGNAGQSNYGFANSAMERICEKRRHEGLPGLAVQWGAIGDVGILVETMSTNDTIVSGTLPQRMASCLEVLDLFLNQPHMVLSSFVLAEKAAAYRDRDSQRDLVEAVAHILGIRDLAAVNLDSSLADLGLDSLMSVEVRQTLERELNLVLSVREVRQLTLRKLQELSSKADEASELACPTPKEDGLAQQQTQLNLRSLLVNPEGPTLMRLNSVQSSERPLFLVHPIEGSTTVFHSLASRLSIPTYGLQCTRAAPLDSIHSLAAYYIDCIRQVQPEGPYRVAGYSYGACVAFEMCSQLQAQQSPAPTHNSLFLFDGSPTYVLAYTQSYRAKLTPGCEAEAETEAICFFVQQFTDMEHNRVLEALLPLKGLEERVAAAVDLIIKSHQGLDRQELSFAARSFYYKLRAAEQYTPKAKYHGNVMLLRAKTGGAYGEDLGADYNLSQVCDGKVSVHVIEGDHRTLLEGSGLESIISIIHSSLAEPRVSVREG
Chain of Heat shock cognate 71 kDa protein (P11142 whole entry): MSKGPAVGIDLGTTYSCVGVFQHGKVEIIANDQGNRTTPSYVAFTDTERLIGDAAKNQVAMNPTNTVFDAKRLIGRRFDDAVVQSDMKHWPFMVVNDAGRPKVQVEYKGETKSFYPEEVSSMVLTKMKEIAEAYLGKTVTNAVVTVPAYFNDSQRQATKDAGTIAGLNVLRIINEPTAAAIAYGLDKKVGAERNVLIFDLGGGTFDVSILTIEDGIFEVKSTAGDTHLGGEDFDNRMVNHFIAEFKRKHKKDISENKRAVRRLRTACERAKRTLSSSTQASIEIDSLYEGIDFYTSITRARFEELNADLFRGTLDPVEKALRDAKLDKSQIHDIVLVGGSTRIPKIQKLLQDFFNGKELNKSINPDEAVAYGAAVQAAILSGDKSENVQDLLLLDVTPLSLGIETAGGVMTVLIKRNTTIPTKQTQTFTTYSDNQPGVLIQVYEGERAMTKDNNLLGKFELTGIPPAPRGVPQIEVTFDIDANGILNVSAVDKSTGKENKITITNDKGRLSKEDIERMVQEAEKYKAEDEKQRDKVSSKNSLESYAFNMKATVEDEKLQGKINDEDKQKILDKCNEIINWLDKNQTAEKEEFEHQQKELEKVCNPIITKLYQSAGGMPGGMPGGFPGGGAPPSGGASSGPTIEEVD
Chain of Serine/threonine-protein phosphatase PP1-alpha catalytic subunit (P62136 whole entry): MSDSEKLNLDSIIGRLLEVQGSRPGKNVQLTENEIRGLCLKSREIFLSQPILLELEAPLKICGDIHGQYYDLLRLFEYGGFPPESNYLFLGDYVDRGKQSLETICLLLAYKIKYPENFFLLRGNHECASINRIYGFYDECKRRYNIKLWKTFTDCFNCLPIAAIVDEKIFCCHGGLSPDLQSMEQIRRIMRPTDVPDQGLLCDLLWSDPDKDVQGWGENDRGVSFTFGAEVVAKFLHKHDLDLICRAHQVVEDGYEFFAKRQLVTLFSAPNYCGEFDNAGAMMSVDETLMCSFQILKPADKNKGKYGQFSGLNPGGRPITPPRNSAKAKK
Chain of SUMO-activating enzyme (Q9UBE0 whole entry): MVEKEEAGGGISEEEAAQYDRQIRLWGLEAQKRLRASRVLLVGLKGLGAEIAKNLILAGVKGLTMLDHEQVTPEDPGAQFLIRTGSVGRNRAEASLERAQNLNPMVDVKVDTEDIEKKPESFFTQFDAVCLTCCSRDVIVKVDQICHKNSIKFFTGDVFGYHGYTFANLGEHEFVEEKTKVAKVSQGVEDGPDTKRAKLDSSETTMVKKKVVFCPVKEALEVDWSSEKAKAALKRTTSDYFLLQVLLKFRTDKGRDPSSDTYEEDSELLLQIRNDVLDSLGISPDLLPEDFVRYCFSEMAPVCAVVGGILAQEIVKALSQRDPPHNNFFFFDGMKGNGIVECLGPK
Chain of SUMO-activating enzyme (Q9UBT2 whole entry): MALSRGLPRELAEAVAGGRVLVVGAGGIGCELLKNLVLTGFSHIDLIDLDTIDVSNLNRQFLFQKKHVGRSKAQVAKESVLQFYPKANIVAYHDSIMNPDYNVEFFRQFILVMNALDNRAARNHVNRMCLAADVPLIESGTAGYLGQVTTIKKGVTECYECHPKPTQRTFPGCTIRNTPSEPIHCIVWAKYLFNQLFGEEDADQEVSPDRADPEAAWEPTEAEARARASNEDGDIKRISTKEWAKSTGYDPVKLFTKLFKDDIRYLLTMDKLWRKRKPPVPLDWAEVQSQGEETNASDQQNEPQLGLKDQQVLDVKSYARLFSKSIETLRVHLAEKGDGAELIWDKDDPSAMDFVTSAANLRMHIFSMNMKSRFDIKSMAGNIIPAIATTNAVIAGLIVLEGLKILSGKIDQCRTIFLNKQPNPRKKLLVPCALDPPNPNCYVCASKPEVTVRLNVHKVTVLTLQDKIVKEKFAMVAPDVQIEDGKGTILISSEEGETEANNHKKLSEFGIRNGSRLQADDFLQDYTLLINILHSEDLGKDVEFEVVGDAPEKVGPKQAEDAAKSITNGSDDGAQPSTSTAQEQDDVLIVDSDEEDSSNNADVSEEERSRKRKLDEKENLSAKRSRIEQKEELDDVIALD
Chain of G2/mitotic-specific cyclin-B1 (P14635 whole entry): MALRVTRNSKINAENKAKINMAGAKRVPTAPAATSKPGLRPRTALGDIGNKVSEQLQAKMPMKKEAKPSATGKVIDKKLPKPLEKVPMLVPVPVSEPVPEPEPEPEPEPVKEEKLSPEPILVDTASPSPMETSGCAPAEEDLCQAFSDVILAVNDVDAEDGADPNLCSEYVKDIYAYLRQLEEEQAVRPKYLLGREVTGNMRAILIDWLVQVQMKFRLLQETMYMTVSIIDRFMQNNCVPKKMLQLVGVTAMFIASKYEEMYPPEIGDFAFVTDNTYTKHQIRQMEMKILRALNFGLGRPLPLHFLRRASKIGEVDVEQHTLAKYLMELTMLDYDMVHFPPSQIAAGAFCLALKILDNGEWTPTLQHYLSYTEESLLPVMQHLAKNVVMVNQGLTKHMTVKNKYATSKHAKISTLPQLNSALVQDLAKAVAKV
Chain of Small ubiquitin-related modifier 2 (P61956 whole entry): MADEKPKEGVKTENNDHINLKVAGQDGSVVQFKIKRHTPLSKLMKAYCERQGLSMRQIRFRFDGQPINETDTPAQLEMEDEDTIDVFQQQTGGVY

For the compound `O=[N+]([O-])c1ccc(Sc2cccc[n+]2[O-])c2nonc12`, the EC50 was > 49.7 µM (not active) in experiment [1] and > 99 µM (inactive) in experiment [2]. In addition, the AC50 in [3] was 7.21 µM (active).

In the case of `N#Cc1c(N2CCCCC2)nc(N)c2c(N)nc(SCC(=O)O)cc12`, the IC50 in [4] was 44.1 µM (not active); in experiment [5] it was 3.92 µM (active).

As for `Oc1c(Cl)cc(Cl)c(Cl)c1Cc1c(O)c(Cl)cc(Cl)c1Cl` [HEXACHLOROPHENE], the IC50 in experiment [6] is 27.4 µM (active); in experiment [7], 15.8 µM (active); in experiment [8] it was 7.79 µM (active); in experiment [10], > 10 µM (inactive). In experiment [9], the concentration giving a half-maximal response (EC50) is recorded as > 150 µM (not active).

For `CCCC(=O)NC(c1ccc(C(C)C)cc1)c1ccc2cccnc2c1O` (stereo not given), the EC50 is 1.63 µM (active) in [11], 2.3 µM (active) in experiment [13], > 180 µM (inactive) in [14] and 2.1 µM (inconclusive) in experiment [15]. Besides, the IC50 in [12] was 3.76 µM (active).
